Test system: chronic fatigue syndrome
Assay: Experiment 1: oral treatment of a subject diagnosed with chronic fatigue syndrome
Format: in vivo, human
Conditions: one subject, CFS by CDC criteria; 100 mg capsules orally twice daily for two months
Experimental: One subject, recently diagnosed with chronic fatigue syndrome by CDC criteria, orally consumed 100 mg capsules of Δ5-androstene-3-acetyl-7,17-dione twice daily for two months. […] As testament to their improvement, they reported to their physician that they had just finished building a 20′×30′ addition to their bam, something, they said, they would not have and could not have done prior to taking Δ5-androstene-3-acetyl-7,17-dione.

CC(=O)O[C@H]1CC[C@@]2(C)C(=CC(=O)[C@@H]3[C@@H]2CC[C@]2(C)C(=O)CC[C@@H]32)C1 [Δ5-androstene-3-acetyl-7,17-dione]
improvement in their symptoms of fatigue (self-reported): 80%
mental alertness (self-reported): felt more mentally alert

— US7553829B2, “Treatment of chronic fatigue syndrome and fibromyalgia syndrome” (Humanetics Corporation, priority 2000, dated 2009)
